Experimental data published in PMC12486440, “Design, synthesis, and in silico studies of new benzofuran–pyrazole hybrids as multi-kinase inhibitors with potential antiproliferative activity” (RSC Advances, 2025).

Tests used:
[1] = test system: OVCAR-4; conditions: single dose 10 μM; ovarian carcinoma
[2] = test system: RPMI-8226; conditions: single dose 10 μM; leukemia
[3] = test system: SF-539; conditions: single dose 10 μM; CNS cancer
[4] = test system: U251; conditions: single dose 10 μM; CNS cancer
[5] = test system: MDA-MB-435; conditions: single dose 10 μM; melanoma
[6] = test system: CCRF-CEM; conditions: single dose 10 μM; leukemia
[7] = test system: OVCAR-8; conditions: single dose 10 μM; ovarian carcinoma
[8] = test system: A549/ATCC; conditions: single dose 10 μM; non-small lung carcinoma
[9] = test system: SW-620; conditions: single dose 10 μM; colon cancer
[10] = test system: CAKI-1; conditions: single dose 10 μM; renal carcinoma
[11] = test system: OVCAR-5; conditions: single dose 10 μM; ovarian carcinoma
[12] = test system: NCI-H460; conditions: single dose 10 μM; non-small lung carcinoma
[13] = test system: HCC-2998; conditions: single dose 10 μM; colon cancer
[14] = test system: UACC-257; conditions: single dose 10 μM; melanoma
[15] = test system: SF-268; conditions: single dose 10 μM; CNS cancer
[16] = test system: MALME-3M; conditions: single dose 10 μM; melanoma
[17] = test system: NCI 60 cancer cell line panel; assay: NCI 60 full panel summary; conditions: single dose 10 μM; mean over the NCI 60 panel
[18] = test system: UO-31; conditions: single dose 10 μM; renal carcinoma
[19] = test system: SK-MEL-5; conditions: single dose 10 μM; melanoma
[20] = test system: PC-3; conditions: single dose 10 μM; prostate carcinoma
[21] = test system: K-562; conditions: single dose 10 μM; leukemia
[22] = test system: SK-MEL-28; conditions: single dose 10 μM; melanoma
[23] = test system: SK-MEL-2; conditions: single dose 10 μM; melanoma
[24] = test system: LOX IMVI; conditions: single dose 10 μM; melanoma
[25] = test system: SK-OV-3; conditions: single dose 10 μM; ovarian carcinoma
[26] = test system: TK-10; conditions: single dose 10 μM; renal carcinoma
[27] = test system: DU-145; conditions: single dose 10 μM; prostate carcinoma
[28] = test system: SR; conditions: single dose 10 μM; leukemia
[29] = test system: HCT-116; conditions: single dose 10 μM; colon cancer
[30] = test system: A498; conditions: single dose 10 μM; renal carcinoma
[31] = test system: M14; conditions: single dose 10 μM; melanoma
[32] = test system: ACHN; conditions: single dose 10 μM; renal carcinoma
[33] = test system: MCF7; conditions: single dose 10 μM; breast carcinoma
[34] = test system: KM12; conditions: single dose 10 μM; colon cancer
[35] = test system: HT29; conditions: single dose 10 μM; colon cancer
[36] = test system: NCI-H23; conditions: single dose 10 μM; non-small lung carcinoma
[37] = test system: OVCAR-3; conditions: single dose 10 μM; ovarian carcinoma
[38] = test system: T-47D; conditions: single dose 10 μM; breast carcinoma
[39] = test system: SNB-75; conditions: single dose 10 μM; CNS cancer
[40] = test system: 786–0; conditions: single dose 10 μM; renal carcinoma
[41] = test system: NCI-H226; conditions: single dose 10 μM; non-small lung carcinoma
[42] = test system: COLO 205; conditions: single dose 10 μM; colon cancer
[43] = test system: MOLT-4; conditions: single dose 10 μM; leukemia
[44] = test system: RXF 393; conditions: single dose 10 μM; renal carcinoma
[45] = test system: UACC-62; conditions: single dose 10 μM; melanoma
[46] = test system: HOP-62; conditions: single dose 10 μM; non-small lung carcinoma
[47] = test system: HL-60(TB); conditions: single dose 10 μM; leukemia
[48] = test system: HOP-92; conditions: single dose 10 μM; non-small lung carcinoma
[49] = test system: HCT-15; conditions: single dose 10 μM; colon cancer
[50] = test system: SN12C; conditions: single dose 10 μM; renal carcinoma
[51] = test system: SNB-19; conditions: single dose 10 μM; CNS cancer
[52] = test system: EKVX; conditions: single dose 10 μM; non-small lung carcinoma
[53] = test system: IGROV1; conditions: single dose 10 μM; ovarian carcinoma
[54] = test system: SF-295; conditions: single dose 10 μM; CNS cancer
[55] = test system: MDA-MB-468; conditions: single dose 10 μM; breast carcinoma
[56] = test system: NCI-H522; conditions: single dose 10 μM; non-small lung carcinoma
[57] = test system: NCI/ADR-RES; conditions: single dose 10 μM; ovarian carcinoma
[58] = test system: BT-549; conditions: single dose 10 μM; breast carcinoma

## COc1ccc(C2=NNC(c3cn(-c4ccccc4)nc3-c3cc4ccccc4o3)C2)cc1OC (stereo not drawn) [3c, 3-(Benzofuran-2-yl)-4-(3-(3,4-dimethoxyphenyl)-4,5-dihydro-1H-pyrazol-5-yl)-1-phenyl-1H-pyrazole]
[1]
  GI%: 58.72%
[2]
  GI%: 88.22%
[3]
  GI%: 56.77%
[4]
  GI%: 60.18%
[5]
  GI%: 65.91%
[6]
  GI%: 84.09%
[7]
  GI%: 63.70%
[8]
  GI%: 57.50%
[9]
  GI%: 47.04%
[10]
  GI%: 76.85%
[11]
  GI%: 41.14%
[12]
  GI%: 81.94%
[13]
  GI%: 64.60%
[14]
  GI%: 45.64%
[15]
  GI%: 61.15%
[16]
  GI%: 30.46%
[17]
  Mean GI%: 60.71%
[18]
  GI%: 80.36%
[19]
  GI%: 74.73%
[20]
  GI%: 66.98%
[21]
  GI%: 87.48%
[22]
  GI%: 35.60%
[23]
  GI%: 47.50%
[24]
  GI%: 65.24%
[25]
  GI%: 32.78%
[26]
  GI%: 42.27%
[27]
  GI%: 58.05%
[28]
  GI%: 77.33%
[29]
  GI%: 74.37%
[30]
  GI%: 7.63%
[31]
  GI%: 63.24%
[32]
  GI%: 74.84%
[33]
  GI%: 77.82%
[34]
  GI%: 68.12%
[35]
  GI%: 64.31%
[36]
  GI%: 53.25%
[37]
  GI%: 65.22%
[38]
  GI%: 81.51%
[39]
  GI%: 58.00%
[40]
  GI%: 52.36%
[41]
  GI%: 68.39%
[42]
  GI%: 47.04%
[43]
  GI%: 80.97%
[44]
  GI%: 36.89%
[45]
  GI%: 62.47%
[46]
  GI%: 33.71%
[47]
  GI%: 88.80%
[48]
  GI%: 75.25%
[49]
  GI%: 49.94%
[50]
  GI%: 63.01%
[51]
  GI%: 59.83%
[52]
  GI%: 57.67%
[53]
  GI%: 61.79%
[54]
  GI%: 58.47%
[55]
  GI%: 78.06%
[56]
  GI%: 51.41%

## 3-(5-(Benzofuran-2-yl)-1-phenyl-1H-pyrazol-3-yl)-1-(3,4-dimethoxyphenyl)prop-2-en-1-one [2c]
[2]
  GI%: 4.63%
[3]
  GI%: 4.21%
[6]
  GI%: 8.09%
[10]
  GI%: 10.30%
[11]
  GI%: 0.00%
[15]
  GI%: 1.66%
[16]
  GI%: 5.86%
[17]
  Mean GI%: 2.16%
[18]
  GI%: 15.32%
[19]
  GI%: 1.65%
[20]
  GI%: 7.06%
[21]
  GI%: 5.48%
[25]
  GI%: 11.15%
[26]
  GI%: 6.22%
[28]
  GI%: 17.15%
[29]
  GI%: 0.17%
[30]
  GI%: 6.80%
[31]
  GI%: 1.79%
[32]
  GI%: 0.70%
[33]
  GI%: 9.78%
[57]
  GI%: 1.79%
[38]
  GI%: 9.23%
[40]
  GI%: 2.44%
[58]
  GI%: 16.27%
[41]
  GI%: 1.83%
[43]
  GI%: 4.38%
[45]
  GI%: 4.68%
[46]
  GI%: 4.42%
[47]
  GI%: 6.49%
[48]
  GI%: 13.94%
[49]
  GI%: 1.66%
[50]
  GI%: 10.90%
[51]
  GI%: 4.96%
[52]
  GI%: 0.81%
[54]
  GI%: 9.48%
[55]
  GI%: 0.93%
[56]
  GI%: 1.92%
